In ChEMBL document CHEMBL5126620, “Mapping the N-Terminal Hexokinase-I Binding Site onto Voltage-Dependent Anion Channel-1 To Block Peripheral Nerve Demyelination” (J Med Chem, 2022):
Active and inactive are the calls of the source. The calls are words filed in the database; no cut-off is given here. Numbered stars: 1 amine (or outer) side, 2 acyl side, 3 side chain; on linkers, the order of the positions; unused ones are H or OH. Square brackets hold non-standard residues; d marks the D form. Peptide text beside a SMILES is read from it. * marks the point of attachment. X2 = CC(C)(C(=O)*)n1cc(-c2cccc(C(F)(F)F)c2)nn1; X1 = CC(=O)CCCC[C@H](N[*:1])C(=O)[*:2]; Aib = CC(C)(N)C(=O)O

What was measured:
[1] = Inhibition of VDAC mediated mitochondrial Ca2+ release in HEK293 cells transfected with mitoGCaMP2; type: cell-based; details: Homo sapiens
[2] = test system: HEK293; assay: Inhibition of VDAC in mitochondria of HEK293 cells transfected with mitoGCaMP2 assessed as calcium efflux from mitochondria by measuring decrease in mitoGCaMP2 fluorescence at 33 uM by DAPI staining confocal imaging analysis; details: Homo sapiens
[3] = test system: HEK293; assay: Inhibition of VDAC in mitochondria of HEK293 cells transfected with mitoGCaMP2 assessed as calcium efflux by measuring mitoGCaMP2 fluorescence in cytoplasm at 33 uM by DAPI staining confocal imaging analysis; type: subcellular; details: Homo sapiens
[4] = test system: HEK293; assay: Inhibition of VDAC in mitochondria of HEK293 cells transfected with mitoGCaMP2 assessed as calcium efflux from mitochondria by measuring decrease in mitoGCaMP2 fluorescence at 6 mM by DAPI staining confocal imaging analysis; details: Homo sapiens, time 30.0 min
[5] = Metabolic stability in rat serum assessed as parent compound remaining at 66.6 uM after 24 hr incubation by LC-MS analysis relative to control; type: ADME, cell-free; details: read-out: Stability
[6] = species on record: Mus musculus; assay: Inhibition of demyelination in sciatic nerve explant C57BL6/J mouse model assessed as reduction in fiber damage level in serum free medium at 3 uM measured after 24 hrs by coherent anti Stokes raman scattering assay; type: functional
[7] = species on record: Mus musculus; assay: Inhibition of demyelination in sciatic nerve explant C57BL6/J mouse model assessed as reduction in fiber damage level in serum containing medium at 3 uM measured after 24 hrs by coherent anti Stokes raman scattering assay; type: functional
[8] = species on record: Homo sapiens; assay: Inhibition of VDAC (unknown origin) mediated mitochondrial Ca2+ release at 100 uM
[9] = Metabolic stability in rat serum assessed as parent compound remaining at 66.6 uM after 1 hr incubation by LC-MS analysis relative to control; type: ADME, cell-free; details: read-out: Stability

Q: With `CCCC[C@H](NC(=O)[C@H](CCC(N)=O)NC(=O)[C@@H]1CCCN1C(=O)[C@@H]1CCCN1C(=O)[C@H](CCCNC(=N)N)NC(=O)[C@H](CCCNC(=N)N)NC(=O)[C@H](CCCNC(=N)N)NC(=O)[C@H](CCC(N)=O)NC(=O)[C@H](CCCNC(=N)N)NC(=O)[C@H](CCCNC(=N)N)NC(=O)[C@H](CCCCN)NC(=O)[C@H](CCCCN)NC(=O)[C@H](CCCNC(=N)N)NC(=O)CNC(C)=O)C(=O)N[C@H](C(=O)N[C@@H](C)C(=O)N[C@@H](C)C(=O)N[C@@H](CCC(N)=O)C(=O)N[C@@H](CC(C)C)C(=O)N[C@@H](CC(C)C)C(=O)N[C@@H](C)C(=O)N[C@@H](Cc1ccc(O)cc1)C(=O)N[C@@H](Cc1ccc(O)cc1)C(=O)N[C@@H](Cc1ccccc1)C(=O)N[C@H](C(=O)N[C@@H](CCC(=O)O)C(=O)N[C@@H](CC(C)C)C(=O)N[C@@H](CCCCN)C(N)=O)[C@@H](C)O)[C@@H](C)CC` as the compound, how does the IC50 [1] read?
A: 13.9 µM

Q: Which results are given for `CC/C=C\C[C@H]1C(=O)CC[C@@H]1CC(=O)OC`?
A: inhibition [2]: Active; inhibition [3]: Active; inhibition [4]: Active

Q: With `CC(=O)N[C@@H](C)C(=O)N[C@@H](CCC(N)=O)C(=O)N[C@@H](CC(C)C)C(=O)N[C@@H](CC(C)C)C(=O)NC(C)(C)C(=O)N[C@@H](Cc1ccc(O)cc1)C(=O)N[C@@H](Cc1ccc(O)cc1)C(=O)N[C@@H](Cc1ccccc1)C(=O)N[C@H](C(=O)N[C@@H](CCC(=O)O)C(=O)N[C@@H](CC(C)C)C(=O)N[C@@H](CCCCN)C(N)=O)[C@@H](C)O` (Ac-AQLL[Aib]YYFTELK-NH2) as the compound, how does the remaining at 24 h, 66.6 µM [5] read?
A: 65%

Q: For `CC(=O)N[C@@H](C)C(=O)NC(C)(C)C(=O)N[C@@H](C)C(=O)NC(C)(C)C(=O)N[C@@H](C)C(=O)N[C@@H](CCC(N)=O)C(=O)N[C@@H](CC(C)C)C(=O)N[C@@H](CC(C)C)C(=O)NC(C)(C)C(=O)N[C@@H](Cc1ccc(O)cc1)C(=O)N[C@@H](Cc1ccc(O)cc1)C(=O)N[C@@H](Cc1ccccc1)C(=O)N[C@H](C(=O)N[C@@H](CCC(=O)O)C(=O)N[C@@H](CC(C)C)C(=O)N[C@@H](CCCCN)C(N)=O)[C@@H](C)O` (Ac-A[Aib]A[Aib]AQLL[Aib]YYFTELK-NH2), which remaining at 24 h, 66.6 µM [5] is on record?
A: 75%

Q: With `CC(=O)N[C@@H](C)C(=O)NC(C)(C)C(=O)N[C@@H](C)C(=O)NC(C)(C)C(=O)N[C@@H](C)C(=O)N[C@@H](CCC(N)=O)C(=O)N[C@@H](CC(C)C)C(=O)N[C@@H](CC(C)C)C(=O)NC(C)(C)C(=O)N[C@@H](Cc1ccc(O)cc1)C(=O)N[C@@H](Cc1ccc(O)cc1)C(=O)N[C@@H](Cc1ccccc1)C(=O)N[C@H](C(=O)N[C@@H](CCC(=O)O)C(=O)N[C@@H](CC(C)C)C(=O)N[C@@H](CCCCN)C(=O)NCC(=O)N[C@@H](CCCNC(=N)N)C(=O)N[C@@H](CCCCN)C(=O)N[C@@H](CCCCN)C(=O)N[C@@H](CCCNC(=N)N)C(=O)N[C@@H](CCCNC(=N)N)C(=O)N[C@@H](CCC(N)=O)C(=O)N[C@@H](CCCNC(=N)N)C(=O)N[C@@H](CCCNC(=N)N)C(=O)N[C@@H](CCCNC(=N)N)C(=O)N1CCC[C@H]1C(=O)N1CCC[C@H]1C(=O)N[C@@H](CCC(N)=O)C(N)=O)[C@@H](C)O` (Ac-A[Aib]A[Aib]AQLL[Aib]YYFTELKGRKKRRQRRRPPQ-NH2) as the compound, how does the inhibition [6] read?
A: Active

Q: And the inhibition [7]?
A: Active

Q: With `CC[C@H](C)[C@H](NC(=O)[C@@H](N)CCCCC(C)=O)C(=O)N[C@@H](C)C(=O)N[C@@H](C)C(=O)N[C@@H](CCC(N)=O)C(=O)N[C@@H](CC(C)C)C(=O)N[C@@H](CC(C)C)C(=O)N[C@@H](C)C(=O)N[C@@H](Cc1ccc(O)cc1)C(=O)N[C@@H](Cc1ccc(O)cc1)C(=O)N[C@@H](Cc1ccccc1)C(=O)N[C@H](C(=O)N[C@@H](CCC(=O)O)C(=O)N[C@@H](CC(C)C)C(=O)N[C@@H](CCCCN)C(=O)NCC(=O)N[C@@H](CCCNC(=N)N)C(=O)N[C@@H](CCCCN)C(=O)N[C@@H](CCCCN)C(=O)N[C@@H](CCCNC(=N)N)C(=O)N[C@@H](CCCNC(=N)N)C(=O)N[C@@H](CCC(N)=O)C(=O)N[C@@H](CCCNC(=N)N)C(=O)N[C@@H](CCCNC(=N)N)C(=O)N[C@@H](CCCNC(=N)N)C(=O)N1CCC[C@H]1C(=O)N1CCC[C@H]1C(=O)N[C@@H](CCC(N)=O)C(N)=O)[C@@H](C)O` (H-[X1]IAAQLLAYYFTELKGRKKRRQRRRPPQ-NH2) as the compound, how does the inhibition [2] read?
A: Active

Q: And the inhibition [3]?
A: Active

Q: What about the inhibition [8] of the same compound?
A: Active

Q: And the IC50 [1]?
A: 15.6 µM

Q: With `C[C@H](NC(=O)C(C)(C)n1cc(-c2cccc(C(F)(F)F)c2)nn1)C(=O)N[C@@H](CCC(N)=O)C(=O)N[C@@H](Cc1c[nH]c2ccccc12)C(=O)N[C@@H](Cc1c[nH]c2ccccc12)C(=O)NC(C)(C)C(=O)N[C@@H](Cc1ccc(O)cc1)C(=O)N[C@@H](Cc1ccc(O)cc1)C(=O)N[C@@H](Cc1ccccc1)C(=O)N[C@H](C(=O)N[C@@H](CCC(=O)O)C(=O)N[C@@H](Cc1c[nH]c2ccccc12)C(=O)N[C@@H](CCCCN)C(=O)NCC(=O)N[C@@H](CCCNC(=N)N)C(=O)N[C@@H](CCCCN)C(=O)N[C@@H](CCCCN)C(=O)N[C@@H](CCCNC(=N)N)C(=O)N[C@@H](CCCNC(=N)N)C(=O)N[C@@H](CCC(N)=O)C(=O)N[C@@H](CCCNC(=N)N)C(=O)N[C@@H](CCCNC(=N)N)C(=O)N[C@@H](CCCNC(=N)N)C(=O)N1CCC[C@H]1C(=O)N1CCC[C@H]1C(=O)N[C@@H](CCC(N)=O)C(N)=O)[C@@H](C)O` (X2-AQWW[Aib]YYFTEWKGRKKRRQRRRPPQ-NH2) as the compound, how does the inhibition [6] read?
A: Active

Q: What about the inhibition [7] of the same compound?
A: Active

Q: With Ac-AQLLAYYFTELK-NH2 as the compound, how does the remaining at 1 h, 66.6 µM [9] read?
A: 8%

Q: For Ac-AQWWAYYFTEWK-NH2, which IC50 [1] is on record?
A: 3.6 µM

Q: Which inhibition [6] does the source give for Ac-AQWWAYYFTEWKGRKKRRQRRRPPQ-NH2 here?
A: Active
